Assay results as given in BindingDB's records for doi:10.1021/jm00018a028 (University of Nebraska Medical Center, 1995).

Assay: Ability to induce shape change (polarization) in human polymorphonuclear leukocytes (PMN)

Molecule: CSCC[C@H](NC(=O)[C@H](CC(=O)O)NC(=O)[C@H](CCCCN)NC(=O)[C@H](Cc1ccccc1)NC(=O)[C@H](CO)NC(=O)[C@@H](N)Cc1ccc(O)cc1)C(=O)N1CCC[C@H]1C(=O)N[C@@H](CC(C)C)C(=O)NCC(=O)N[C@@H](CCCNC(=N)N)C(=O)O
- EC50: 5 µM

Molecule: CC(C)C[C@H](NC(=O)[C@@H]1CCCN1C(=O)[C@H](C)NC(=O)[C@H](CC(=O)O)NC(=O)[C@H](CCCCN)NC(=O)[C@H](Cc1ccccc1)NC(=O)[C@H](CO)NC(=O)[C@@H](N)Cc1ccc(O)cc1)C(=O)NCC(=O)N[C@@H](CCCNC(=N)N)C(=O)O
- EC50: 15.8 µM

Molecule: H-YSFKDMQLGR-OH [Tyr-Ser-Phe-LyS-Asp-Met-Glu-Leu-Gly-Arg]
- EC50: 37 µM

Molecule: H-YSFKDMQPGR-OH
- EC50: 22 µM

Molecule: H-YSFKGLLLGR-OH
- EC50: 0.3 µM
